Test results published in BindingDB's records for doi:10.1021/jm00032a003 (Merck Research Laboratories, 1994).

Assay: The compound was tested for binding activity against Cholecystokinin type B receptor from rat […] tissue using [125]BH CCK-8 as radioligand

Row | Structure (SMILES) | IC50
1 | CN1C(=O)[C@H](NC(=O)Nc2ccc(-c3nc(=O)o[nH]3)cc2)N=C(c2ccccc2)c2ccccc21 [1-((R)-1-Methyl-2-oxo-5-phenyl-2,3-dihydro-1H-benzo[e][1,4]diazepin-3-yl)-3-[4-(5-oxo-4,5-dihydro-[1,2,4]oxadiazol-3-yl)-phenyl]-urea] | 56.4 nM
2 | CN1C(=O)[C@@H](NC(=O)Nc2ccc(-c3nnn[nH]3)cc2)N=C(c2ccccc2)c2ccccc21 [1-((S)-1-Methyl-2-oxo-5-phenyl-2,3-dihydro-1H-benzo[e][1,4]diazepin-3-yl)-3-[4-(1H-tetrazol-5-yl)-phenyl]-urea] | 1.02 nM
3 | CN1C(=O)[C@H](NC(=O)Nc2ccc(C(=O)O)cc2)N=C(c2ccccc2)c2ccccc21 | 6.7 nM
4 | CN1C(=O)[C@H](NC(=O)Nc2ccc(-c3nnn[nH]3)cc2)N=C(c2ccccc2)c2ccccc21 [1-((R)-1-Methyl-2-oxo-5-phenyl-2,3-dihydro-1H-benzo[e][1,4]diazepin-3-yl)-3-[4-(1H-tetrazol-5-yl)-phenyl]-urea] | 250 nM
5 | CN1C(=O)[C@@H](NC(=O)Nc2ccc(-c3nc(=O)o[nH]3)cc2)N=C(c2ccccc2)c2ccccc21 [1-((S)-1-Methyl-2-oxo-5-phenyl-2,3-dihydro-1H-benzo[e][1,4]diazepin-3-yl)-3-[4-(5-oxo-4,5-dihydro-[1,2,4]oxadiazol-3-yl)-phenyl]-urea] | 0.266 nM
6 | CC(C)CN1C(=O)[C@@H](NC(=O)Nc2ccc(-c3nnn[nH]3)cc2)N=C(c2ccccc2)c2ccccc21 [1-((S)-1-Isobutyl-2-oxo-5-phenyl-2,3-dihydro-1H-benzo[e][1,4]diazepin-3-yl)-3-[4-(1H-tetrazol-5-yl)-phenyl]-urea] | 0.142 nM
7 | CC(C)CN1C(=O)[C@H](NC(=O)Nc2ccc(-c3nnn[nH]3)cc2)N=C(c2ccccc2)c2ccccc21 [1-((R)-1-Isobutyl-2-oxo-5-phenyl-2,3-dihydro-1H-benzo[e][1,4]diazepin-3-yl)-3-[4-(1H-tetrazol-5-yl)-phenyl]-urea] | 23.8 nM
